According to patent US20260063623A1, “METHODS OF ASSESSING METABOLIC FLUX” (The Regents of the University of Michigan, priority 2022, published 2026):
Read-outs that look alike come from different tables or passages of the source.

Assays:
[1] = tested on: de novo GMP synthesis (IMPDH); experiment: Machine learning prediction of de novo GMP synthesis ratio in MMF treated vs control GBM PDXs infused with U13C glucose; assay type: in vivo; details: MMF treated GBM PDX mice vs control PDXs, from measured enrichment patterns
From the text: To generate data used for flux modeling, patient-derived xenografts (PDXs) from human glioblastomas are implanted into the brains of immunodeficient mice. PDXs are transduced with luciferase and EGFP prior for imaging and physical separation from brain tissue, respectively. Once brain tumors are established, mice are cannulated for infusions, treatments, and blood sampling. One catheter is surgically placed into the jugular vein of anesthetized recipient mice, and a second line is placed into the carotid artery. In experiments in which mice are to receive oral administration of MMF or vehicle, a third catheter is directed to the stomach. […] Brain tumors are separated from healthy brain tissue by fluorescence-guided microdissection. […] Small molecules from solid tissues and plasma are extracted and samples are analyzed by liquid chromatography-mass spectrometry (LC-MS) to identify the metabolites and their labeling patterns (FIG. 1A).
To train machine learning models that can predict the ratio of de novo synthesis of GMP to the overall GMP synthesis, simulated MIDs were used as input features. […] A machine learning model with a good evaluation score on a test dataset should be also evaluated on some experimental value for further validation. […] By measuring the MIDs in these two groups, the de novo GMP ratio can be calculated using the INST-MFA method and compared to machine learning results. […]

[2] = tested on: inosine monophosphate dehydrogenase (IMPDH); details: mice models, combined with radiation; cited from earlier work
[3] = human, in vivo
Description: Eight patients with suspected GBM were recruited to the IRB-approved clinical study, which was performed perioperatively with standard-of-care craniotomies. Near the start of each procedure (approximately 2-4 hours prior to tissue resection), patients received a bolus intravenous dose of [U^13C]-glucose (8 g) followed by a continuous intravenous infusion of [U^13C]-glucose at a rate of 4 g/h. Arterial blood was collected into EDTA-coated vials every 30-60 min for plasma preparation and analysis until solid tissues of interest were harvested from each patient. […]
(§1) Flash-frozen tissue samples were homogenized in cold (−80° C.) 80% methanol. […] Isotope labeling was determined using an Agilent system consisting of an Infinity Lab II UPLC coupled with a 6545 QTOF mass spectrometer (Agilent Technologies, Santa Clara, CA), and data were analyzed with values corrected for natural isotope abundance using MassHunter Profinder 10.0. […] To determine relative metabolite abundances in tissues and plasma from control or Ser/Gly (−) diet fed mice, samples were prepared as described above and then analyzed with an Agilent 1290 Infinity II LC-6470 Triple Quadrupole tandem mass spectrometer system (Agilent Technologies, Santa Clara, CA). For compound optimization, calibration, and data acquisition, Agilent MassHunter Quantitative Analysis Software version B.08.02 was used.

[4] = design: species or system mice; details: mouse, in vivo
From the text: At approximately 1-2 weeks before expected death related to brain tumors (˜3 weeks post-implant), intracranial GBM-bearing mice underwent dual catheterizations, with one catheter surgically placed into the jugular vein (for [U^13C]-glucose administration) and a second catheter placed into the carotid artery (for plasma collection during infusion). Mice were then allowed to recover from surgery for 4-5 days. In studies assessing the influence of RT on metabolism, cannulated mice were anesthetized by 2% isoflurane inhalation and then treated with cranially directed RT at a dose of 8 Gy or sham RT with a lead shield keeping the cranium […]. […]
as §1, with “For compound optimization, calibration, and data acquisition, Agilent MassHunter Quantitative Analysis Software version B.08.02 was used.” left out

Compound | de novo GMP synthesis ratio (de novo to overall GMP synthesis) predicted by machine learning model [1] | radiation outcomes [2] | time to arterial steady state of labeled glucose [3] | time to arterial steady state of labeled glucose [4] [min]
COc1c(C)c2c(c(O)c1C/C=C(\C)CCC(=O)OCCN1CCOCC1)C(=O)OC2 [MMF, mycophenolate mofetil] | lower de novo GMP synthesis ratio | improves radiation outcomes | – | –
[U^13C]-glucose | – | – | approximately 30 minutes | ≤ 30
